Results taken from ChEMBL document CHEMBL3044793, “Antihepatotoxic activity of ferolactone, a new furanocoumarin from Feronia limonia” (2012).
Calls of active or inactive are those of the source. No cut-off for these calls is given here.

Columns and labels:
Rattus norvegicus [1] = experiment: Hepatoprotective activity in Rattus norvegicus Wistar albino (rat) assessed as reduction in CCl4-induced increase in SGPT level at 50 mg/kg, po administered QD for 6 days measured on day 8 by colorimetric analysis relative to control; type: functional; parameters: scale not given: the % may be the effect or the level left
Rattus norvegicus [2] = experiment: Hepatoprotective activity in Rattus norvegicus Wistar albino (rat) assessed as increase in CCl4-induced reduction in total protein level at 50 mg/kg, po administered QD for 6 days measured on day 8 relative to control; type: functional; parameters: scale not given: the % may be the effect or the level left
Rattus norvegicus [3] = experiment: Hepatoprotective activity against CCl4-induced toxicity in Rattus norvegicus Wistar albino (rat) assessed as normal parenchyma at 50 mg/kg, po administered QD for 6 days measured on day 8 by hematoxylin and eosin staining-based microscopic analysis; type: functional, organism-based; parameters: dose 50 mg/kg
Rattus norvegicus [4] = experiment: Hepatoprotective activity in Rattus norvegicus Wistar albino (rat) assessed as reduction in CCl4-induced necrosis at 50 mg/kg, po administered QD for 6 days measured on day 8 by hematoxylin and eosin staining-based microscopic analysis; type: functional, organism-based; parameters: dose 50 mg/kg
Rattus norvegicus [5] = experiment: Hepatoprotective activity against CCl4-induced toxicity in Rattus norvegicus Wistar albino (rat) assessed as normal portal triad at 50 mg/kg, po administered QD for 6 days measured on day 8 by hematoxylin and eosin staining-based microscopic analysis; type: functional, organism-based; parameters: dose 50 mg/kg
Rattus norvegicus [6] = experiment: Hepatoprotective activity against CCl4-induced toxicity in Rattus norvegicus Wistar albino (rat) assessed as total albumin level at 50 mg/kg, po administered QD for 6 days measured on day 8 (reference value: 2.33 +/- 0.18 g/dl); type: functional
Rattus norvegicus [7] = experiment: Hepatoprotective activity in Rattus norvegicus Wistar albino (rat) assessed as reduction in CCl4-induced increase in alkaline phosphatase level at 50 mg/kg, po administered QD for 6 days measured on day 8 relative to control; type: functional; parameters: scale not given: the % may be the effect or the level left
Rattus norvegicus [8] = experiment: Hepatoprotective activity in Rattus norvegicus Wistar albino (rat) assessed as reduction in CCl4-induced fatty accumulation at 50 mg/kg, po administered QD for 6 days measured on day 8 by hematoxylin and eosin staining-based microscopic analysis; type: functional, organism-based; parameters: dose 50 mg/kg
Rattus norvegicus [9] = experiment: Hepatoprotective activity in Rattus norvegicus Wistar albino (rat) assessed as reduction in CCl4-induced hepatocyte injury at 50 mg/kg, po administered QD for 6 days measured on day 8 by hematoxylin and eosin staining-based microscopic analysis; type: functional, organism-based; parameters: dose 50 mg/kg
Rattus norvegicus [10] = experiment: Hepatoprotective activity in Rattus norvegicus Wistar albino (rat) assessed as reduction in CCl4-induced increase in SGOT level at 50 mg/kg, po administered QD for 6 days measured on day 8 by colorimetric analysis relative to ocntrol; type: functional; parameters: scale not given: the % may be the effect or the level left
Rattus norvegicus [11] = experiment: Hepatoprotective activity in Rattus norvegicus Wistar albino (rat) assessed as reduction in CCl4-induced lymphocytic infiltration at 50 mg/kg, po administered QD for 6 days measured on day 8 by hematoxylin and eosin staining-based microscopic analysis; type: functional, organism-based; parameters: dose 50 mg/kg
Rattus norvegicus [12] = experiment: Hepatoprotective activity against CCl4-induced toxicity in Rattus norvegicus Wistar albino (rat) assessed as clear central vein at 50 mg/kg, po administered QD for 6 days measured on day 8 by hematoxylin and eosin staining-based microscopic analysis; type: functional, organism-based; parameters: dose 50 mg/kg

COc1c2ccoc2c(OC/C=C(\C)CC2C=C(C)C(=O)O2)c2oc(=O)ccc12 (configuration not stated) [FEROLACTONE]
Activity (Rattus norvegicus [1]): 39.63%
Activity (Rattus norvegicus [2]): 36.15%
Activity (Rattus norvegicus [3]): Active
Activity (Rattus norvegicus [4]): Active
Activity (Rattus norvegicus [5]): Active
Activity (Rattus norvegicus [6]): 3.44 g/dL
Activity (Rattus norvegicus [7]): 41.16%
Activity (Rattus norvegicus [8]): Active
Activity (Rattus norvegicus [9]): Active
Activity (Rattus norvegicus [10]): 43.44%
Activity (Rattus norvegicus [11]): Active
Activity (Rattus norvegicus [12]): Active
